Results published in BigSolDB 2.1.

O=c1c2ccccc2sc2ccc(Cl)cc12
Details	solubility (mole fraction)
in 1,2-dichloroethane, 291.55 K	0.0108
in 1,2-dichloroethane, 293.05 K	0.0114
in 1,2-dichloroethane, 294.95 K	0.0121
in 1,2-dichloroethane, 297.05 K	0.0131
in 1,2-dichloroethane, 299.15 K	0.0139
in 1,2-dichloroethane, 301.25 K	0.015
in 1,2-dichloroethane, 306.25 K	0.0173
in 1,2-dichloroethane, 311.35 K	0.0195
in 1,2-dichloroethane, 316.35 K	0.022
in 1,2-dichloroethane, 321.45 K	0.0247
in 1,2-dichloroethane, 326.75 K	0.0275
in 1,2-dichloroethane, 331.55 K	0.0307
in 1,4-dioxane, 290.35 K	0.00155
in 1,4-dioxane, 295.45 K	0.00263
in 1,4-dioxane, 300.45 K	0.00398
in 1,4-dioxane, 305.55 K	0.00552
in 1,4-dioxane, 310.45 K	0.00703
in 1,4-dioxane, 315.55 K	0.00882
in 1,4-dioxane, 320.45 K	0.0105
in 1,4-dioxane, 326.35 K	0.0128
in 1,4-dioxane, 331.15 K	0.0145
in 2-butanone, 292.15 K	0.00488
in 2-butanone, 297.05 K	0.00587
in 2-butanone, 301.95 K	0.00695
in 2-butanone, 306.65 K	0.00834
in 2-butanone, 311.25 K	0.0101
in 2-butanone, 316.15 K	0.0119
in 2-butanone, 321.25 K	0.0145
in 2-butanone, 326.55 K	0.017
in 2-butanone, 331.55 K	0.0208
in 2-butanone, 335.95 K	0.024
in THF, 291.85 K	0.00658
in THF, 296.95 K	0.00767
in THF, 302.15 K	0.00869
in THF, 307.25 K	0.00967
in THF, 312.25 K	0.0106
in THF, 317.25 K	0.0113
in THF, 322.25 K	0.0118
in THF, 327.55 K	0.0124
in THF, 332.85 K	0.0127
in acetone, 289.15 K	0.00244
in acetone, 294.75 K	0.00278
in acetone, 299.15 K	0.00306
in acetone, 303.65 K	0.00335
in acetone, 309.25 K	0.00381
in acetone, 313.35 K	0.00425
in acetone, 319.15 K	0.00498
in acetone, 323.35 K	0.00579
in acetone, 329.25 K	0.00692
in acetonitrile, 289.15 K	0.000623
in acetonitrile, 294.35 K	0.000768
in acetonitrile, 299.45 K	0.00093
in acetonitrile, 305.15 K	0.00114
in acetonitrile, 309.85 K	0.00133
in acetonitrile, 315.15 K	0.0016
in acetonitrile, 319.75 K	0.0019
in acetonitrile, 324.35 K	0.00226
in acetonitrile, 329.15 K	0.00265
in ethanol, 287.55 K	0.000567
in ethanol, 293.15 K	0.000679
in ethanol, 298.15 K	0.000795
in ethanol, 303.15 K	0.000943
in ethanol, 308.35 K	0.00122
in ethanol, 313.35 K	0.0015
in ethanol, 318.15 K	0.0019
in ethanol, 322.15 K	0.00229
in ethanol, 327.65 K	0.00296
in ethyl acetate, 289.15 K	0.00367
in ethyl acetate, 293.15 K	0.00419
in ethyl acetate, 298.25 K	0.00502
in ethyl acetate, 303.45 K	0.00588
in ethyl acetate, 308.25 K	0.00683
in ethyl acetate, 313.35 K	0.00786
in ethyl acetate, 318.45 K	0.00935
in ethyl acetate, 324.65 K	0.0112
in ethyl acetate, 330.15 K	0.0129
in isopropanol, 290.25 K	0.000547
in isopropanol, 295.15 K	0.000647
in isopropanol, 300.55 K	0.000757
in isopropanol, 304.75 K	0.000906
in isopropanol, 310.25 K	0.0011
in isopropanol, 314.95 K	0.00137
in isopropanol, 320.35 K	0.00179
in isopropanol, 325.65 K	0.00225
in isopropanol, 331.15 K	0.00292
in methanol, 292.15 K	0.000192
in methanol, 297.05 K	0.000236
in methanol, 301.95 K	0.000279
in methanol, 306.65 K	0.00036
in methanol, 311.25 K	0.000414
in methanol, 316.15 K	0.000535
in methanol, 321.25 K	0.000665
in methanol, 326.55 K	0.000878
in methanol, 331.55 K	0.00112
in methanol, 335.95 K	0.00134
in n-propanol, 290.65 K	0.000647
in n-propanol, 295.25 K	0.000769
in n-propanol, 300.15 K	0.000896
in n-propanol, 305.55 K	0.00106
in n-propanol, 310.65 K	0.00129
in n-propanol, 315.55 K	0.00156
in n-propanol, 320.65 K	0.0019
in n-propanol, 325.55 K	0.0023
in n-propanol, 331.15 K	0.00277
in toluene, 289.65 K	0.00915
in toluene, 295.05 K	0.0112
in toluene, 300.15 K	0.0138
in toluene, 305.25 K	0.0164
in toluene, 310.25 K	0.0193
in toluene, 315.35 K	0.023
in toluene, 320.35 K	0.0276
in toluene, 325.25 K	0.0321
in toluene, 330.25 K	0.039
